Read-outs that look alike come from different tables or passages of the source.
Test system: Microbial strains (5) isolated from paper mill water samples
Assay: VFA reduction in TGE broth cultures of paper mill microbial isolates, VFA measured by GC-FID
Assay type: cell-based
Method: Equipment: A Gas Chromatograph (GC) equipped with a flame ionization detector (FID) (e.g. Agilent 6890N GC or equivalent) equipped with an autosampler is utilized with a Fused Silica Capillary Column (e.g. Agilent DB-WAX UI, 30 m×0.53 mm×1.0 μm).
Sample Preparation: An aliquot (0.5 mL) of a sample is taken from a shaken sample well via pipet and transferred into a glass vial with the standard diluent (4.5 mL). The glass vial is then capped and vortexed, and a portion of the contents transferred into a GC vial.
GC Standardization: The GC is standardized by injecting 2.0 μL of each working standard using the instrument parameters listed in Table 2 below. The areas for the standards are used to create a linear calibration curve in GC software (e.g. Agilent Chemstation or equivalent).
Quantitative Sample Analysis: Samples (2 μL injection volume) are analyzed against the working standards, with appropriate dilutions made to keep sample concentrations within the range of the standards. Peak areas of the samples are compared to the standard curves to determine the amounts of each VFA present in each sample via GC software (e.g. Agilent Chemstation or equivalent).
Calibration: A working standard (10 or 50 ppm, 2 μL) is injected at the beginning and end of each set of samples, and intermittently within long sequences of sampling, and the concentration determined and compared to the to the standard curve to maintain calibration (+/−5% of standard curve).
General Procedure: Microbial strains (5) are isolated from paper mill water samples onto individual petri plates. Overnight cultures are prepared by inoculating TGE Broth (10 mL) with a single colony from each petri plate (5 isolated strains=5 colonies per 10 mL overnight culture). Each culture is then incubated overnight at 35° C. with shaking. Portions (0.6 mL ea.) of each overnight culture are added to bottles with sterile TGE broth (29.4 mL) and the resulting mixtures are incubated with shaking at 35° C. After 2 hours (T=0), an initial sample from each bottles is taken and analyzed GC as described above. The samples are then dosed with a VFA Control Agent, capped, and incubated with shaking at 35° C. Aliquots of each sample are taken at various times post-dosage and analyzed via GC as described above, with each sample bottle capped and incubated between samplings along with an uninoculated control (sterile TGE broth) and an inoculated control (untreated). % VFA reduction is reported based on the relative VFA concentration (ppm) of a sample determined against the inoculated/untreated control.

[1] = single VFA Control Agent, ppm as per Example (25-500 ppm), 4 h post-dosage, 35° C., vs inoculated/untreated control
[2] = single VFA Control Agent at 50 or 100 ppm as per Example, 0.5 h post-dosage
[3] = single VFA Control Agent at 50 or 100 ppm as per Example, 2 h post-dosage
[4] = single VFA Control Agent at 50 or 100 ppm as per Example, 2.5 h post-dosage

O=P(O)(O)CN(CCCCCCN(CP(=O)(O)O)CP(=O)(O)O)CCCCCCN(CP(=O)(O)O)CP(=O)(O)O [Example 6]
VFA Red. at 4 h (%) [1]: 12%

O=P(O)(O)CN(CCCCCCN(CP(=O)(O)O)CP(=O)(O)O)CCCCCCN(CP(=O)(O)O)CP(=O)(O)O [Example 5]
VFA Red. at 4 h (%) [1]: 4%

Polyamino polyether methylene phosphonic acid [Example 9]
VFA Red. at 4 h (%) [1]: 5%

O=P1([O-])OP(=O)([O-])OP(=O)([O-])OP(=O)([O-])OP(=O)([O-])OP(=O)([O-])O1.[Na+].[Na+].[Na+].[Na+].[Na+].[Na+] [Example 4, Sodium hexametaphosphate]
VFA Red. at 4 h (%) [1]: 4%

O=S([O-])O.[Na+] [Example 29, Sodium bisulfite]
VFA Red. at 0.5 h (%) [2]: 1.0%
VFA Red. at 2 h (%) [3]: 14.6%
VFA Red. at 2.5 h (%) [4]: 25.5%

O=P(O)(O)CN(CCN(CP(=O)(O)O)CP(=O)(O)O)CCN(CP(=O)(O)O)CP(=O)(O)O [Example 25, Diethylenetriamine penta(methylene phosphonic acid)]
VFA Red. at 0.5 h (%): 8.3%
VFA Red. at 2 h (%): 12.5%
VFA Red. at 2.5 h (%): 9.1%

O=S([O-])O.[Na+] [Example 28, Sodium bisulfite]
VFA Red. at 0.5 h (%) [2]: 3.1%
VFA Red. at 2 h (%) [3]: 0.0%
VFA Red. at 2.5 h (%) [4]: 6.9%

O=P1([O-])OP(=O)([O-])OP(=O)([O-])OP(=O)([O-])OP(=O)([O-])OP(=O)([O-])O1.[Na+].[Na+].[Na+].[Na+].[Na+].[Na+] [Example 3, Sodium hexametaphosphate]
VFA Red. at 4 h (%) [1]: 0%

Polyamino polyether methylene phosphonic acid [Example 10]
VFA Red. at 4 h (%) [1]: 10%

Diethylenetriamine penta(methylene phosphonic acid) sodium salt [Example 26]
VFA Red. at 0.5 h (%) (sodium salt): 3.1%
VFA Red. at 2 h (%) (sodium salt): 6.4%
VFA Red. at 2.5 h (%) (sodium salt): 9.1%

O=P(O)(O)CN(CCN(CP(=O)(O)O)CP(=O)(O)O)CCN(CP(=O)(O)O)CP(=O)(O)O [Example 7, Diethylenetriamine penta(methylene phosphonic acid)]
VFA Red. at 4 h (%): 19%

O=P(O)(O)CN(CCN(CP(=O)(O)O)CP(=O)(O)O)CCN(CP(=O)(O)O)CP(=O)(O)O [Example 24, Diethylenetriamine penta(methylene phosphonic acid)]
VFA Red. at 0.5 h (%): 2.1%
VFA Red. at 2 h (%): 6.4%
VFA Red. at 2.5 h (%): 8.2%

Diethylenetriamine penta(methylene phosphonic acid) sodium salt [Example 27]
VFA Red. at 0.5 h (%) (sodium salt): 4.2%
VFA Red. at 2 h (%) (sodium salt): 7.9%
VFA Red. at 2.5 h (%) (sodium salt): 6.9%

O=P(O)(O)CN(CCN(CP(=O)(O)O)CP(=O)(O)O)CCN(CP(=O)(O)O)CP(=O)(O)O [Example 8, Diethylenetriamine penta(methylene phosphonic acid)]
VFA Red. at 4 h (%): 25%

From patent US20230193562A1, “METHOD FOR CONTROLLING VOLATILE FATTY ACID CONTENT IN PULP, PAPER, AND/OR BOARD MAKING PROCESSES” (SOLENIS TECHNOLOGIES, L.P., priority 2021, published 2023)
